Assay results: patent US11685901B2, “Compositions and methods for organoid generation and disease modeling” (Salk Institute for Biological Studies, priority 2016, dated 2023)

Tested on: hiPSC-derived hepatocytes
Test: Lipid accumulation and insulin resistance in hiPSC-derived hepatocytes / human mini liver
Assay type: cell-based
Conditions: overnight culture
From the text: FIGS. 6A-6H are schematics and images showing generation of functional human mini-organs in a dish. FIG. 6A is a schematic showing generation of functional human mini organs including human islets, pancreas, liver, heart, and intestine. FIGS. 6B-6C show the generation of a human heart organoid. FIG. 6B (top) provides a schematic illustrating the protocol for differentiation of a human pluripotent stem cell (hPSC) into a cardiomyocyte (when cultured in 2D) or into a mini heart (when co-cultured with hADSCs and HUVECs in 3D). FIG. 6B (bottom left) provides a plot showing relative expression of cardiomyocyte-specific genes human MLC2a (hMLC2a), human Nkx2-5 (hNkx2-5), alpha myosin heavy chain (alphaMHC), and KCNQ1 before (day 0) and at day 18 of the differentiation protocol, with and without the PPARδ agonist GW501516. At the bottom right of FIG. 6B is a videomicrograph showing beating of the hiPSC-derived cardiomyocytes. […] FIGS. 6D-6F show generation of a human liver organoid. FIG. 6D (top) provides a schematic illustrating the protocol for differentiation of a human pluripotent stem cell (hPSC) into hepatocytes. FIG. 6D (bottom left) provides a plot showing relative expression of hepatocyte-specific genes AFP, ALB, and Cyp3a7, during the differentiation of 6 independent preparations. At the bottom right of FIG. 6D is a micrograph showing hiPSC-derived hepatocytes. […]

For phosphatidic acid, the “lipid droplets in hiPSC-derived hepatocytes” value was “accumulation of lipid droplets”.
